Read-outs that look alike come from different tables or passages of the source.
Assays:
gut microbiome [1] = details: mouse, in vivo, 100 mg/kg
gut microbiome [2] = assay: gut microbiome 16S rRNA sequencing of stool of infected, treated mice; details: IP 100 mg/kg every 12 hours for 5 days

CC1(C)S[C@@H]2[C@H](NC(=O)[C@H](N)c3ccc(O)cc3)C(=O)N2[C@H]1C(=O)O [Amox, amoxicillin]
Camobacteriaceae change in percent relative abundance (gut microbiome [1]; C3H, ip, 5 days): 0.000% | Chitinophagaceae change in percent relative abundance (gut microbiome [1]; C3H, ip, 5 days): 0.000% | Christensenellaceae change in percent relative abundance (gut microbiome [1]; C3H, ip, 5 days): 0.000% | Clostridiaceae change in percent relative abundance (gut microbiome [1]; C3H, ip, 5 days): 0.211% | Clostridiales change in percent relative abundance (gut microbiome [1]; C3H, ip, 5 days): −0.037% | Clostridiales family xi. incertae sedis change in percent relative abundance (gut microbiome [1]; C3H, ip, 5 days): −0.010% | Clostridiales family xiii. incertae sedis change in percent relative abundance (gut microbiome [1]; C3H, ip, 5 days): −0.007% | Coriobacteriaceae change in percent relative abundance (gut microbiome [1]; C3H, ip, 5 days): 0.099% | Acholeplasmataceae change in percent relative abundance (gut microbiome [1]; ip): 0.005% | Aerococcaceae change in percent relative abundance (gut microbiome [1]; ip): 0.000% | Anaerolineaceae change in percent relative abundance (gut microbiome [1]; ip): 0.000% | Anaeroplasmataceae change in percent relative abundance (gut microbiome [1]; ip): −0.132% | Anaplasmataceae change in percent relative abundance (gut microbiome [1]; ip): 0.000% | Aspergillaceae change in percent relative abundance (gut microbiome [1]; ip): 0.000% | Asteraceae change in percent relative abundance (gut microbiome [1]; ip): 0.000% | Bacillaceae change in percent relative abundance (gut microbiome [1]; ip): −0.011% | Bacillales change in percent relative abundance (gut microbiome [1]; ip): −0.031% | Bacteroidaceae change in percent relative abundance (gut microbiome [1]; ip): 0.684% | Bifidobacteriaceae change in percent relative abundance (gut microbiome [1]; ip): 0.000% | Candidatus saccharibacteria change in percent relative abundance (gut microbiome [1]; ip): −0.018% | Corynebacteriaceae change in percent relative abundance (gut microbiome [1]; ip): 0.000% | Cytophagaceae change in percent relative abundance (gut microbiome [1]; ip): 0.001% | Deferribacteraceae change in percent relative abundance (gut microbiome [1]; ip): 0.080% | Defluviitaleaceae change in percent relative abundance (gut microbiome [1]; ip): 0.000% | Desulfobacteraceae change in percent relative abundance (gut microbiome [1]; ip): 0.000% | Enterobacteriaceae change in percent relative abundance (gut microbiome [1]; ip): −0.243% | Enterococcaceae change in percent relative abundance (gut microbiome [1]; ip): 0.052% | Erysipelotrichaceae change in percent relative abundance (gut microbiome [1]; ip): −0.193% | Eubacteriaceae change in percent relative abundance (gut microbiome [1]; ip): −1.475% | Fabaceae change in percent relative abundance (gut microbiome [1]; ip): 0.000% | Flavobacteriaceae change in percent relative abundance (gut microbiome [1]; ip): 0.000% | Fusobacteriaceae change in percent relative abundance (gut microbiome [1]; ip): 0.000% | Gammaproteobacteria change in percent relative abundance (gut microbiome [1]; ip): 0.003% | Gloeobacteraceae change in percent relative abundance (gut microbiome [1]; ip): 0.055% | Gracilibacteraceae change in percent relative abundance (gut microbiome [1]; ip): −0.026% | Halomonadaceae change in percent relative abundance (gut microbiome [1]; ip): 0.000% | Hylidae change in percent relative abundance (gut microbiome [1]; ip): 0.000% | Kopriimonadaceae change in percent relative abundance (gut microbiome [1]; ip): 0.000% | Lachnospiraceae change in percent relative abundance (gut microbiome [1]; ip): −1.425% | Lactobacillaceae change in percent relative abundance (gut microbiome [1]; ip): 1.726% | Leuconostocaceae change in percent relative abundance (gut microbiome [1]; ip): 0.000% | Methylobacteriaceae change in percent relative abundance (gut microbiome [1]; ip): 0.000% | Microbacteriaceae change in percent relative abundance (gut microbiome [1]; ip): 0.000% | Mucoraceae change in percent relative abundance (gut microbiome [1]; ip): 0.000% | Nostocaceae change in percent relative abundance (gut microbiome [1]; ip): 0.000% | Onagraceae change in percent relative abundance (gut microbiome [1]; ip): 0.000% | Oscillatoriales change in percent relative abundance (gut microbiome [1]; ip): 0.000% | Oscillospiraceae change in percent relative abundance (gut microbiome [1]; ip): 0.001% | Paenibacillaceae change in percent relative abundance (gut microbiome [1]; ip): −0.001% | Pasteurellaceae change in percent relative abundance (gut microbiome [1]; ip): 0.000% | Pelobacteraceae change in percent relative abundance (gut microbiome [1]; ip): 0.000% | Peptococcaceae change in percent relative abundance (gut microbiome [1]; ip): −0.325% | Peptoniphilaceae change in percent relative abundance (gut microbiome [1]; ip): 0.000% | Peptostreptococcaceae change in percent relative abundance (gut microbiome [1]; ip): −0.131% | Physalacriaceae change in percent relative abundance (gut microbiome [1]; ip): 0.000% | Poaceae change in percent relative abundance (gut microbiome [1]; ip): 0.024% | Polyangiaceae change in percent relative abundance (gut microbiome [1]; ip): 0.000% | Porphyromonadaceae change in percent relative abundance (gut microbiome [1]; ip): 10.471% | Prevotellaceae change in percent relative abundance (gut microbiome [1]; ip): 0.080% | Pseudomonadaceae change in percent relative abundance (gut microbiome [1]; ip): 0.000% | Rhizobiaceae change in percent relative abundance (gut microbiome [1]; ip): 0.000% | Rhodobacteraceae change in percent relative abundance (gut microbiome [1]; ip): 0.000% | Rikenellaceae change in percent relative abundance (gut microbiome [1]; ip): −3.443% | Ruminococcaceae change in percent relative abundance (gut microbiome [1]; ip): −0.093% | Sphingomonadaceae change in percent relative abundance (gut microbiome [1]; ip): 0.000% | Spirochaetaceae change in percent relative abundance (gut microbiome [1]; ip): −0.032% | Spiroplasmataceae change in percent relative abundance (gut microbiome [1]; ip): −0.059% | Staphylococcaceae change in percent relative abundance (gut microbiome [1]; ip): −0.001% | Streptococcaceae change in percent relative abundance (gut microbiome [1]; ip): −7.086% | Thermoanaerobacteraceae change in percent relative abundance (gut microbiome [1]; ip): −0.008% | Veillonellaceae change in percent relative abundance (gut microbiome [1]; ip): 0.000% | Verrucomicrobiaceae change in percent relative abundance (gut microbiome [1]; ip): 1.296% | Xanthomonadaceae change in percent relative abundance (gut microbiome [1]; ip): 0.001% | Acholeplasmataceae change in percent relative abundance (gut microbiome [1]; po): 0.095% | Candidatus saccharibacteria change in percent relative abundance (gut microbiome [1]; po): −0.022% | Brucellaceae change in percent relative abundance (gut microbiome [2]): 0.000%

Reference: patent publication US12233081B2, “Hygromycin a compounds and methods of treating spirochete diseases” (priority 2018, dated 2025)
